Laboratory results as given in US9067977B2, “Peptides derivatized with A-B-C-D- and their therapeutical use” (Novo Nordisk A/S, priority 2007, dated 2015).
Starred links: 1 amine or outer side, 2 acyl side, 3 side chain; linkers in the order of their positions; H or OH if unused. Non-standard residues stand in square brackets, D forms with d. Residues, ends and D or L forms follow the SMILES beside them. Groups on a side chain read outwards from the residue. *: point of attachment. X1 = O=C(CCCCCCCCCCCCCCCc1nnn[nH]1)NS(=O)(=O)CCCC(=O)*; PEG12 = NCCOCCOCCOCCOCCOCCOCCOCCOCCOCCOCCOCCOCCC(=O)O; X2 = O=C(O)CCCCCCCCCCCCCCCCCCC(=O)NCC1CCC(C(=O)*)CC1; C20 diacid = O=C(O)CCCCCCCCCCCCCCCCCCC(=O)*; γGlu = O=C(O)[C@H](CCC(=O)[*:2])N[*:1]; Desaminohistidyl = O=C(CCc1c[nH]cn1)*; AEEA = NCCOCCOCC(=O)O; Aib = CC(C)(N)C(=O)O; Inp = O=C(O)C1CCNCC1; GABA = NCCCC(=O)O

biological target: human serum albumin (HSA) (Homo sapiens, UniProt P02768); experiment: Albumin binding affinity, competition scintillation proximity assay; details: not given
Sequence (P02768 25-609): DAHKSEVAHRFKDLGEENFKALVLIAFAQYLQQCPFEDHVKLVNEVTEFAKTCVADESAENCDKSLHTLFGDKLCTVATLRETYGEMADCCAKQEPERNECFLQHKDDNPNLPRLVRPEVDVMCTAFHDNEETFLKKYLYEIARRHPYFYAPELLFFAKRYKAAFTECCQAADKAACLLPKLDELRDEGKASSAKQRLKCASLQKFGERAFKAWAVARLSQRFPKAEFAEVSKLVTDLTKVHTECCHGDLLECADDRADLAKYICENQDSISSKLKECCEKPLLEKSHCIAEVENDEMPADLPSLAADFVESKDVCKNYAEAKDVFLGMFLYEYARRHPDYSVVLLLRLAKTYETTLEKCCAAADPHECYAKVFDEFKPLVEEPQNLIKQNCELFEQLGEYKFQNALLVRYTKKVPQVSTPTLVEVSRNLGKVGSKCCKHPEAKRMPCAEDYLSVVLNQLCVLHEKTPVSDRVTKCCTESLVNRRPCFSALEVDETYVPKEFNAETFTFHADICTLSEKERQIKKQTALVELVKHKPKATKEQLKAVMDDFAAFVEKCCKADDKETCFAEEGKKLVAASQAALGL

Structure (SMILES)	EC50 [nM]
CC[C@H](C)[C@H](NC(=O)[C@H](Cc1ccccc1)NC(=O)[C@H](CCC(=O)O)NC(=O)[C@H](CCCNC(=N)N)NC(=O)[C@H](C)NC(=O)[C@H](C)NC(=O)[C@H](CCC(N)=O)NC(=O)[C@H](CCC(=O)O)NC(=O)[C@H](CCC(=O)O)NC(=O)[C@H](CC(C)C)NC(=O)[C@H](Cc1ccc(O)cc1)NC(=O)[C@H](CO)NC(=O)[C@H](CO)NC(=O)[C@@H](NC(=O)[C@H](CC(=O)O)NC(=O)[C@H](CO)NC(=O)[C@@H](NC(=O)[C@H](Cc1ccccc1)NC(=O)[C@@H](NC(=O)CNC(=O)[C@H](CCC(=O)O)NC(=O)C(C)(C)NC(=O)[C@@H](N)Cc1c[nH]cn1)[C@@H](C)O)[C@@H](C)O)C(C)C)C(=O)N[C@@H](C)C(=O)N[C@@H](Cc1c[nH]c2ccccc12)C(=O)N[C@@H](CC(C)C)C(=O)N[C@H](C(=O)N[C@@H](CCCNC(=N)N)C(=O)NCC(=O)N[C@@H](CCCNC(=N)N)C(=O)NCC(=O)N[C@@H](CCCCNC(=O)COCCOCCNC(=O)COCCOCCNC(=O)CC[C@H](NC(=O)C1CCN(C(=O)CCCCCCCCCCCCCCCCCCC(=O)O)CC1)C(=O)O)C(N)=O)C(C)C [Example 12, [Aib8, Glu22, Arg26, Arg34]GLP-1-(7-37)Lys[2-(2-[2-(2-[2-(2-((S)-4-[1-[19-Carboxynonadecanoyl]piperidine-4-carbonylamino]-4-carboxybutyrylamino)ethoxy)ethoxy]acetylamino)ethoxy]ethoxy)acetyl]amide] (H-H[Aib]EGTFTSDVSSYLEEQAAREFIAWLVRGRGK([AEEA-AEEA-γGlu-Inp-C20 diacid])-NH2)	300 to 800
CC[C@H](C)[C@H](NC(=O)[C@H](Cc1ccccc1)NC(=O)[C@H](CCC(=O)O)NC(=O)[C@H](CCCNC(=N)N)NC(=O)[C@H](C)NC(=O)[C@H](C)NC(=O)[C@H](CCC(N)=O)NC(=O)[C@H](CCC(=O)O)NC(=O)[C@H](CCC(=O)O)NC(=O)[C@H](CC(C)C)NC(=O)[C@H](Cc1ccc(O)cc1)NC(=O)[C@H](CO)NC(=O)[C@H](CO)NC(=O)[C@@H](NC(=O)[C@H](CC(=O)O)NC(=O)[C@H](CO)NC(=O)[C@@H](NC(=O)[C@H](Cc1ccccc1)NC(=O)[C@@H](NC(=O)CNC(=O)[C@H](CCC(=O)O)NC(=O)C(C)(C)NC(=O)[C@@H](N)Cc1c[nH]cn1)[C@@H](C)O)[C@@H](C)O)C(C)C)C(=O)N[C@@H](CCC(=O)O)C(=O)N[C@@H](Cc1c[nH]c2ccccc12)C(=O)N[C@@H](CC(C)C)C(=O)N[C@H](C(=O)N[C@@H](CCCCN)C(=O)NCC(=O)N[C@@H](CCCNC(=N)N)C(=O)N1CCC[C@H]1C(=O)N[C@@H](CCCCNC(=O)CCOCCOCCOCCOCCOCCOCCOCCOCCOCCOCCOCCOCCNC(=O)CC[C@H](NC(=O)CC[C@H](NC(=O)CCCNC(=O)CCCS(=O)(=O)NC(=O)CCCCCCCCCCCCCCCc1nnn[nH]1)C(=O)O)C(=O)O)C(=O)O)C(C)C [Example 52] (H-H[Aib]EGTFTSDVSSYLEEQAAREFIEWLVKGRPK([PEG12-γGlu-γGlu-GABA-X1])-OH)	300 to 800
CC[C@H](C)[C@H](NC(=O)[C@H](Cc1ccccc1)NC(=O)[C@H](CCC(=O)O)NC(=O)[C@H](CCCNC(=N)N)NC(=O)[C@H](C)NC(=O)[C@H](C)NC(=O)[C@H](CCC(N)=O)NC(=O)CNC(=O)[C@H](CCC(=O)O)NC(=O)[C@H](CC(C)C)NC(=O)[C@H](Cc1ccc(O)cc1)NC(=O)[C@H](CO)NC(=O)[C@H](CO)NC(=O)[C@@H](NC(=O)[C@H](CC(=O)O)NC(=O)[C@H](CO)NC(=O)[C@@H](NC(=O)[C@H](Cc1ccccc1)NC(=O)[C@@H](NC(=O)CNC(=O)[C@H](CCC(=O)O)NC(=O)[C@H](C)NC(=O)CCc1c[nH]cn1)[C@@H](C)O)[C@@H](C)O)C(C)C)C(=O)N[C@@H](C)C(=O)N[C@@H](Cc1c[nH]c2ccccc12)C(=O)N[C@@H](CC(C)C)C(=O)N[C@H](C(=O)N[C@@H](CCCNC(=N)N)C(=O)NCC(=O)N[C@@H](CCCNC(=N)N)C(=O)N[C@@H](CCCCNC(=O)COCCOCCNC(=O)COCCOCCNC(=O)CC[C@H](NC(=O)[C@H]1CC[C@H](CNC(=O)CCCCCCCCCCCCCCCCCCC(=O)O)CC1)C(=O)O)C(N)=O)C(C)C [Example 25]	> 2000
CC[C@H](C)[C@H](NC(=O)[C@H](Cc1ccccc1)NC(=O)[C@H](CCC(=O)O)NC(=O)[C@H](CCCCNC(=O)COCCOCCNC(=O)COCCOCCNC(=O)CC[C@H](NC(=O)C1CCN(C(=O)CCCCCCCCCCCCCCCCCCC(=O)O)CC1)C(=O)O)NC(=O)[C@H](C)NC(=O)[C@H](C)NC(=O)[C@H](CCC(N)=O)NC(=O)[C@H](CCC(=O)O)NC(=O)[C@H](CCC(=O)O)NC(=O)[C@H](CC(C)C)NC(=O)[C@H](Cc1ccc(O)cc1)NC(=O)[C@H](CO)NC(=O)[C@H](CO)NC(=O)[C@@H](NC(=O)[C@H](CC(=O)O)NC(=O)[C@H](CO)NC(=O)[C@@H](NC(=O)[C@H](Cc1ccccc1)NC(=O)[C@@H](NC(=O)CNC(=O)[C@H](CCC(=O)O)NC(=O)C(C)(C)NC(=O)[C@@H](N)Cc1c[nH]cn1)[C@@H](C)O)[C@@H](C)O)C(C)C)C(=O)N[C@@H](C)C(=O)N[C@@H](Cc1c[nH]c2ccccc12)C(=O)N[C@@H](CC(C)C)C(=O)N[C@H](C(=O)N[C@@H](CCC(N)=O)C(=O)NCC(=O)N[C@@H](CCCNC(=N)N)C(=O)NCC(=O)O)C(C)C [Example 69] (H-H[Aib]EGTFTSDVSSYLEEQAAK([AEEA-AEEA-γGlu-Inp-C20 diacid])EFIAWLVQGRG-OH)	100 to 150
CC[C@H](C)[C@H](NC(=O)[C@H](Cc1ccccc1)NC(=O)[C@H](CCC(=O)O)NC(=O)[C@H](CCCNC(=N)N)NC(=O)[C@H](C)NC(=O)[C@H](C)NC(=O)[C@H](CCC(N)=O)NC(=O)[C@H](CCC(=O)O)NC(=O)[C@H](CCC(=O)O)NC(=O)[C@H](CC(C)C)NC(=O)[C@H](Cc1ccc(O)cc1)NC(=O)[C@H](CO)NC(=O)[C@H](CO)NC(=O)[C@@H](NC(=O)[C@H](CC(=O)O)NC(=O)[C@H](CO)NC(=O)[C@@H](NC(=O)[C@H](Cc1ccccc1)NC(=O)[C@@H](NC(=O)CNC(=O)[C@H](CCC(=O)O)NC(=O)[C@H](C)NC(=O)CCc1c[nH]cn1)[C@@H](C)O)[C@@H](C)O)C(C)C)C(=O)N[C@@H](C)C(=O)N[C@@H](Cc1c[nH]c2ccccc12)C(=O)N[C@@H](CC(C)C)C(=O)N[C@H](C(=O)N[C@@H](CCCNC(=N)N)C(=O)NCC(=O)N[C@@H](CCCNC(=N)N)C(=O)N[C@@H](CCCCNC(=O)COCCOCCNC(=O)COCCOCCNC(=O)CC[C@H](NC(=O)[C@H]1CC[C@H](CNC(=O)CCCCCCCCCCCCCCCCCCC(=O)O)CC1)C(=O)O)C(=O)O)C(C)C [Example 26, N-epsilon37-[2-(2-{2-[2-(2-{2-[(S)-4-Carboxy-4-({trans-4-[(19-carboxy-nonadecanoylamino)methyl]cyclohexanecarbonyl}amino)butyrylamino]ethoxy}ethoxy)acetylamino]ethoxy}ethoxy)acetyl][DesaminoHis7,Glu22,Arg26,Arg34,Lys37]GLP-1-(7-37)]	800 to 2000
CC[C@H](C)[C@H](NC(=O)[C@H](Cc1ccccc1)NC(=O)[C@H](CCC(=O)O)NC(=O)[C@H](CCCNC(=N)N)NC(=O)[C@H](C)NC(=O)[C@H](C)NC(=O)[C@H](CCC(N)=O)NC(=O)[C@H](CCC(=O)O)NC(=O)[C@H](CCC(=O)O)NC(=O)[C@H](CC(C)C)NC(=O)[C@H](Cc1ccc(O)cc1)NC(=O)[C@H](CO)NC(=O)[C@H](CO)NC(=O)[C@@H](NC(=O)[C@H](CC(=O)O)NC(=O)[C@H](CO)NC(=O)[C@@H](NC(=O)[C@H](Cc1ccccc1)NC(=O)[C@@H](NC(=O)CNC(=O)[C@H](CCC(=O)O)NC(=O)[C@H](C)NC(=O)CCc1c[nH]cn1)[C@@H](C)O)[C@@H](C)O)C(C)C)C(=O)N[C@@H](C)C(=O)N[C@@H](Cc1c[nH]c2ccccc12)C(=O)N[C@@H](CC(C)C)C(=O)N[C@H](C(=O)N[C@@H](CCCNC(=N)N)C(=O)NCC(=O)N[C@@H](CCCNC(=N)N)C(=O)NCC(=O)N[C@@H](CCCCNC(=O)COCCOCCNC(=O)COCCOCCNC(=O)CC[C@H](NC(=O)C1CCC(CNC(=O)CCCCCCCCCCCCCCCCCCC(=O)O)CC1)C(=O)O)C(=O)O)C(C)C (stereo partly shown) [Example 56, [DesaminoHis7,Glu22,Arg26,34]-GLP-1 (7-37)-Lys-[2-(2-{2-[2-(2-{2-[4-Carboxy-4-({4-[(19-carboxynonadecanoylamino)methyl]cyclohexanecarbonyl}amino)butyrylamino]ethoxy}ethoxy)acetylamino]ethoxy}ethoxy)acetyl] peptide] (Desaminohistidyl-AEGTFTSDVSSYLEEQAAREFIAWLVRGRGK([AEEA-AEEA-γGlu-X2])-OH)	150 to 300

same assay, conditions: human, biotinylated human serum albumin on streptavidin-SPA beads, pH 7.4

Structure (SMILES)	EC50 at 20 h [nM]
CC[C@H](C)[C@H](NC(=O)[C@H](Cc1ccccc1)NC(=O)[C@H](CCC(=O)O)NC(=O)[C@H](CCCNC(=N)N)NC(=O)[C@H](C)NC(=O)[C@H](C)NC(=O)[C@H](CCC(N)=O)NC(=O)C(C)(C)NC(=O)[C@H](CCC(=O)O)NC(=O)[C@H](CC(C)C)NC(=O)[C@H](Cc1ccc(O)cc1)NC(=O)[C@H](CCCCNC(=O)COCCOCCNC(=O)COCCOCCNC(=O)CC[C@H](NC(=O)C1CCN(C(=O)CCCCCCCCCCCCCCCCCCC(=O)O)CC1)C(=O)O)NC(=O)[C@H](CO)NC(=O)[C@@H](NC(=O)[C@H](CC(=O)O)NC(=O)[C@H](CO)NC(=O)[C@@H](NC(=O)[C@H](Cc1ccccc1)NC(=O)[C@@H](NC(=O)CNC(=O)[C@H](CCC(=O)O)NC(=O)C(C)(C)NC(=O)[C@@H](N)Cc1c[nH]cn1)[C@@H](C)O)[C@@H](C)O)C(C)C)C(=O)N[C@@H](C)C(=O)N[C@@H](Cc1c[nH]c2ccccc12)C(=O)N[C@@H](CC(C)C)C(=O)N[C@H](C(=O)N[C@@H](CCCNC(=N)N)C(=O)NC(C)(C)C(=O)N[C@@H](CCCNC(=N)N)C(=O)NCC(=O)O)C(C)C [Example 70] (H-H[Aib]EGTFTSDVSK([AEEA-AEEA-γGlu-Inp-C20 diacid])YLE[Aib]QAAREFIAWLVR[Aib]RG-OH)	800 to 2000
